{"source": "paper PMC6597546", "about": "“Identification of a potent benzoxaborole drug candidate for treating cryptosporidiosis” (Nature Communications, 2019)", "key": {"C. parvum": {"test_system": "C. parvum", "assay": "C. parvum growth inhibition in HCT-8 cells (follow-up assay, Vicia villosa lectin staining)", "assay_type": "cell-based, Cryptosporidium parvum", "method": "Follow-up assays were performed at the University of Vermont (UVM) and Calibr at Scripps Research by infection of the colonic adenocarcinoma cell line HCT-8 (ATCC CCL-244) and staining with the Vicia villosa lectin and DAPI[17],[32]. The FBS concentrations and parasites used for these assays were as indicated; parasite isolates and sources included C. parvum Iowa isolate oocysts purchased from Bunch Grass Farm (Deary, ID), C. parvum Iowa isolate oocysts purchased from the Sterling Laboratory (University of Arizona, Tucson, AZ), wild type C. parvum oocysts provided by Dr. Jenni Zambriski (Virginia Tech, Blacksburg, VA), and the C. hominis TU502 isolate purchased from Dr. Saul Tzipori (Tufts University Cummings School of Veterinary Medicine, North Grafton, MA). […] Amphotericin B (Sigma, catalog# A2942) was added to the culture media at 0.1 to 0.5 µg per mL for the DMC1 dose response assays."}, "CYP1A2": {"target": "T1, CYP1A2 (Homo sapiens, UniProt P05177)", "T1 sequence (P05177 1-516)": "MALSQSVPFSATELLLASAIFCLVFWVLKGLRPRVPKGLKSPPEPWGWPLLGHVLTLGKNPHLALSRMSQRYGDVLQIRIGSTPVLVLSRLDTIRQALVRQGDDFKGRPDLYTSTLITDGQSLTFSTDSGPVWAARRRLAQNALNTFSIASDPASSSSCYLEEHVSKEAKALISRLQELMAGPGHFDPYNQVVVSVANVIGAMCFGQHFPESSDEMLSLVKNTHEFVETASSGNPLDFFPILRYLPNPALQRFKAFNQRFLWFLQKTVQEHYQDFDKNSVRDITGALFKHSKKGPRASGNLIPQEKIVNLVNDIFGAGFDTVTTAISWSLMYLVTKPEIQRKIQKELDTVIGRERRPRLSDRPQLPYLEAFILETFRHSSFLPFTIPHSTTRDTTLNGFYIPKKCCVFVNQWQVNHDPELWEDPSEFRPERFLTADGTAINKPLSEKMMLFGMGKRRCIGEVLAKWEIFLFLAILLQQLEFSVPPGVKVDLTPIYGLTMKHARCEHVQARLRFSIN", "assay": "CYP450 inhibition 1A2", "assay_type": "in vitro ADME"}, "MDR1 (P-gp)": {"test_system": "MDR1 (P-gp)", "assay": "in vitro", "conditions": "dog"}}, "note": "Values joined by “and” are separate entries in the source; they are usually repeats but may differ in a detail not shown here. Identical values can stand only once. Like-named read-outs stand apart in the source and are kept apart here.", "data": [{"compound": "CC1(C)OB(O)c2cc(NC(=O)c3ccc(-n4cccn4)cc3Cl)ccc21", "note": "[AN7973]", "values": [{"measurement": "EC50", "setting": "C. parvum; Bunch Grass Farm (BGF) C. parvum Iowa isolate, HCT-8 cells, 48 h exposure, read-out: EC50", "value": 0.13, "unit": "µM"}, {"measurement": "EC50", "setting": "C. parvum; Cryptosporidium parvum, HCT-8, in Vicia villosa, 48 h, Bunch Grass Farm (BGF) C. parvum Iowa isolate, HCT-8 cells, 48 h exposure, read-out: EC50", "value": "0.13 to 0.43", "unit": "µM"}, {"measurement": "EC50", "setting": "C. parvum; Cryptosporidium parvum, HCT-8, in Vicia villosa, Iowa (BGF, 10%FBS), HCT-8, single replicates, unit inferred, read-out: In vitro efficacy (Fig 2b, EC50)", "value": 0.116, "unit": "µM"}, {"measurement": "EC50", "setting": "C. parvum; Cryptosporidium parvum, HCT-8, in Vicia villosa, read-out: In vitro efficacy (Fig 2b, EC50)", "value": 0.363, "unit": "µM"}, {"measurement": "EC90", "setting": "C. parvum; Cryptosporidium parvum, in Vicia villosa, BGF Iowa isolate, HCT-8", "value": 0.21, "unit": "µM"}, {"measurement": "EC50", "setting": "C. parvum; Field isolate (2%FBS), HCT-8, single replicates, unit inferred, read-out: In vitro efficacy (Fig 2b, EC50)", "value": "0.226 µM and 0.231 µM and 0.673 µM and 0.304 µM"}, {"measurement": "EC50", "setting": "C. parvum; Iowa (BGF, 2%FBS), HCT-8, single replicates, unit inferred, read-out: In vitro efficacy (Fig 2b, EC50)", "value": "0.459 µM and 0.606 µM and 0.233 µM and 0.334 µM"}, {"measurement": "EC50", "setting": "C. parvum; Iowa (BGF, 10%FBS), HCT-8, single replicates, unit inferred, read-out: In vitro efficacy (Fig 2b, EC50)", "value": "0.163 µM and 0.128 µM"}, {"measurement": "EC50", "setting": "C. parvum; Iowa (Sterling Lab, 2%FBS), HCT-8, single replicates, unit inferred, read-out: In vitro efficacy (Fig 2b, EC50)", "value": "0.412 µM and 0.206 µM and 0.29 µM and 0.456 µM and 0.232 µM"}, {"measurement": "% inhibition, 0 - 48 h V. villosa lectin (asexual)", "setting": "C. parvum; log [AN7973] 0.22", "value": "97.86% and 96.89%"}, {"measurement": "% inhibition, 0 - 48 h V. villosa lectin (asexual)", "setting": "C. parvum; log [AN7973] 0.52", "value": "97.05% and 95.66%"}, {"measurement": "% inhibition, 0 - 48 h V. villosa lectin (asexual)", "setting": "C. parvum; log [AN7973] 0.70", "value": "95.89% and 94.55%"}, {"measurement": "% inhibition, 0 - 48 h V. villosa lectin (asexual)", "setting": "C. parvum; log [AN7973] 1.00", "value": "95.12% and 93.55%"}, {"measurement": "% inhibition, 0 - 48 h V. villosa lectin (asexual)", "setting": "C. parvum; log [AN7973] -0.25", "value": "95.71% and 93.12%"}, {"measurement": "% inhibition, 0 - 48 h V. villosa lectin (asexual)", "setting": "C. parvum; log [AN7973] -0.73", "value": "85.80% and 82.68%"}, {"measurement": "% inhibition, 0 - 48 h V. villosa lectin (asexual)", "setting": "C. parvum; log [AN7973] -1.69", "value": "-8.97% and -7.81%"}, {"measurement": "% inhibition, 0 - 48 h V. villosa lectin (asexual)", "setting": "C. parvum; log [AN7973] -2.16", "value": "-1.87% and -6.19%"}, {"measurement": "inhibition at 10 µM", "setting": "CYP1A2", "value": 1, "unit": "%"}, {"measurement": "Papp", "setting": "MDR1 (P-gp); MDCK-MDR1, MDCK-MDR1 Papp", "value": 56.5, "unit": "×10⁻⁶ cm/s"}, {"measurement": "Papp", "setting": "MDR1 (P-gp); MDCK-MDR1, MDCK-MDR1 Papp + Pgp inhibitor", "value": 60.6, "unit": "×10⁻⁶ cm/s"}]}]}
